# Measured values reported in US11555032B2, “Isoxazole derivatives as FXR agonists and methods of use thereof” (Enanta Pharmaceuticals, Inc., priority 2019, dated 2023).
# Target: T1, human FXR (NR1H4) (Homo sapiens, UniProt Q96RI1)
# T1 construct: host or cells: CHO (Chinese hamster ovary) reporter cells
# T1 sequence (Q96RI1 1-486): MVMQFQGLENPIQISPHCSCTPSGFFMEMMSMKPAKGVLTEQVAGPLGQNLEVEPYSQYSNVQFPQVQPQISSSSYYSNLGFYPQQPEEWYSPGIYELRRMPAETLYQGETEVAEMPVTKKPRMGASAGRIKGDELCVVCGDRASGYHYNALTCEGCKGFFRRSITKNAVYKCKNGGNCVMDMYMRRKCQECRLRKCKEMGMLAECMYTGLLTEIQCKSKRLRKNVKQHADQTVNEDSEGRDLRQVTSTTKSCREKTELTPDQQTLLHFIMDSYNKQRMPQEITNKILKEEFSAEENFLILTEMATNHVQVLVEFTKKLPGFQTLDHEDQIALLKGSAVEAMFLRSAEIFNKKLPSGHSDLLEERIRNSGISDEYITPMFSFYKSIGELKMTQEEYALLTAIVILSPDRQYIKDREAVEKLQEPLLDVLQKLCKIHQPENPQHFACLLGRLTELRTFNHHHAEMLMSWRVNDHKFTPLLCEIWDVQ
# Assay: Human FXR (NRIH4) Assay, luciferase reporter
# Format: cell-based
# Conditions: CHO reporter cells expressing human NR1H4, luciferase, 22 hours incubation
# Description: Determination of a ligand mediated Gal4 promoter driven transactivation to quantify ligand binding mediated activation of FXR. FXR Reporter Assay kit purchased from Indigo Bioscience (Catalogue number: IB00601) to determine the potency and efficacy of compound developed by Enanta that can induce FXR activation. The principle application of this reporter assay system is to quantify functional activity of human FXR. The assay utilizes non-human mammalian cells, CHO (Chinese hamster ovary) cells engineered to express human NR1H4 protein (referred to as FXR). Reporter cells also incorporate the cDNA encoding beetle luciferase which catalyzes the substrates and yields photon emission. Luminescence intensity of the reaction is quantified using a plate-reading luminometer, Envision. Reporter Cells include the luciferase reporter gene functionally linked to an FXR responsive promoter. Thus, quantifying changes in luciferase expression in the treated reporter cells provides a sensitive surrogate measure of the changes in FXR activity. EC50 and efficacy (normalize to CDCA set as 100%) is determined by XLFit. The assay is according to the manufacturer's instructions. In brief, the assay was performed in white, 96 well plates using final volume of 100 ul containing cells with different doses of compounds. Retrieve Reporter Cells from −80° C. storage. Perform a rapid thaw of the frozen cells by transferring a 10 ml volume of 37° C. cell recovery medium into the tube of frozen cells. Recap the tube of Reporter Cells and immediately place it in a 37° C. water bath for 5-10 minutes. Retrieve the tube of Reporter Cell Suspension from the water bath. Sanitize the outside surface of the tube with a 70% alcohol swab, and then transfer it into the cell culture hood. Dispense 90 μl of cell suspension into each well of the 96-well Assay Plate. Transfer the plate into 37° C. incubator, allowing the cells adherent to the bottom of the well. Dilute compounds in Dilution Plate (DP), and administrate to cells at Assay Plate (AP). DMSO content of the samples was kept at 0.2%. Cells were incubated for additional 22 hours before luciferase activities were measured. Thirty minutes before intending to quantify FXR activity, remove Detection Substrate and Detection Buffer from the refrigerator and place them in a low-light area so that they may equilibrate to room temperature. Remove the plate's lid and discard all media contents by ejecting it into an appropriate waste container. Gently tap the inverted plate onto a clean absorbent paper towel to remove residual droplets. Cells will remain tightly adhered to well bottoms. Add 100 μl of luciferase detection reagent to each well of the assay plate. Allow the assay plate to rest at room temperature for at least 5 minutes following the addition of LDR. Set the instrument (Envision) to perform a single 5 second “plate shake” prior to reading the first assay well. Read time may be 0.5 second (500 mSec) per well. EC50 and Efficacy (normalize to CDCA set as 100%) is determined by XLFit.
# The efficacy was normalized to CDCA set as 100%.
row,EC50 [nM],SMILES
1,25 to 500,"Fc1c(Br)cccc1CNC1C2CCC1CC(OCc1c(-c3ccccc3OC(F)(F)F)noc1C1CC1)C2 [Example 15, (1R,3r,5S,8s)-N-(3-bromo-2-fluorobenzyl)-3-((5-cyclopropyl-3-(2-(trifluoromethoxy)phenyl)isoxazol-4-yl)methoxy)bicyclo[3.2.1]octan-8-amine]"
2,> 500,Fc1ccc(CCNC2C3CCC2CC(OCc2c(-c4ccccc4OC(F)(F)F)noc2C2CC2)C3)cc1 (centres unmarked) [Example 15-2]
3,25 to 500,O=C(O)c1cc(F)c2nc(NC3C4CCC3CC(NCc3c(-c5ccccc5OC(F)(F)F)noc3C3CC3)C4)sc2c1 (centres unmarked) [Example 16]
4,25 to 500,O=C(O)c1ccc2c(c1)CN(C1C3CCC1CC(OCc1c(-c4c(Cl)cccc4Cl)noc1C1CC1)C3)C2 (centres unmarked) [Example 17]
5,25 to 500,CC(C)Oc1cc(C(=O)O)cc2sc(OC3C4CCC3CC(OCc3c(-c5ccccc5OC(F)(F)F)noc3C3CC3)C4)nc12 (centres unmarked) [Example 18]
6,25 to 500,FC(F)(F)Oc1ccccc1-c1noc(C2CC2)c1COC1CC2CCC(C1)C2Nc1cnc2cc(-c3nnn[nH]3)ccc2n1 (centres unmarked) [Example 25]
7,> 500,O=C(O)c1cc(F)cc2ncc(NC3C4CCC3CC(OCc3c(-c5ccccc5OC(F)(F)F)noc3C3CC3)C4)nc12 (centres unmarked) [Example 26]
8,25 to 500,N#Cc1cc(C2CC2)cc2nc(NC3C4CCC3CC(OCc3c(-c5ccccc5OC(F)(F)F)noc3C3CC3)C4)cnc12 (centres unmarked) [Example 27]
9,< 25,FC(F)(F)Oc1ccccc1-c1noc(C2CC2)c1COC1CC2CCC(C1)C2Nc1cnc2c(-c3nnn[nH]3)cc(C3CC3)cc2n1 (centres unmarked) [Example 28]
10,< 25,O=C(O)c1ccc2nc(NC3C4CCC3CC(OCc3c(-c5ccccc5OC(F)(F)F)noc3C3CC3)C4)cnc2c1 (centres unmarked) [Example 29]
11,< 25,O=C(O)c1cc(C2CC2)cc2nc(NC3C4CCC3CC(OCc3c(-c5ccccc5OC(F)(F)F)noc3C3CC3)C4)cnc12 (centres unmarked) [Example 30]
12,25 to 500,O=C(O)c1ccc2ccc(NC3C4CCC3CC(OCc3c(-c5ccccc5OC(F)(F)F)noc3C3CC3)C4)nc2c1 (centres unmarked) [Example 31]
13,< 25,Fc1cc(-c2nnn[nH]2)c2ncc(NC3C4CCC3CC(OCc3c(-c5ccccc5OC(F)(F)F)noc3C3CC3)C4)nc2c1 (centres unmarked) [Example 32]
14,< 25,CC1(S(=O)(=O)NC(=O)c2cccc3nc(NC4C5CCC4CC(OCc4c(-c6ccccc6OC(F)(F)F)noc4C4CC4)C5)cnc23)CC1 (centres unmarked) [Example 33]
15,< 25,O=C(NS(=O)(=O)C1CC1)c1cccc2nc(NC3C4CCC3CC(OCc3c(-c5ccccc5OC(F)(F)F)noc3C3CC3)C4)cnc12 (centres unmarked) [Example 34]
16,< 25,N#Cc1ccc2nc(NC3C4CCC3CC(OCc3c(-c5ccccc5OC(F)(F)F)noc3C3CC3)C4)cnc2c1 (centres unmarked) [Example 35]
17,< 25,O=C(O)c1cc(C2CC2)c2nc(NC3C4CCC3CC(OCc3c(-c5ccccc5OC(F)(F)F)noc3C3CC3)C4)sc2c1 (centres unmarked) [Example 36]
18,< 25,O=C(O)c1cc(OC(F)(F)F)c2nc(NC3C4CCC3CC(OCc3c(-c5ccccc5OC(F)(F)F)noc3C3CC3)C4)sc2c1 (centres unmarked) [Example 37]
19,25 to 500,N#Cc1cc(C2CC2)c2nc(NC3C4CCC3CC(OCc3c(-c5ccccc5OC(F)(F)F)noc3C3CC3)C4)sc2c1 (centres unmarked) [Example 38]
20,< 25,O=C(O)c1cc(F)cc2nc(NC3C4CCC3CC(OCc3c(-c5ccccc5OC(F)(F)F)noc3C3CC3)C4)cnc12 (centres unmarked) [Example 39]
21,< 25,N#Cc1cc(F)cc2nc(NC3C4CCC3CC(OCc3c(-c5ccccc5OC(F)(F)F)noc3C3CC3)C4)cnc12 (centres unmarked) [Example 40]
22,< 25,O=C(O)c1ccc2nc(NC3C4CCC3CC(OCc3c(-c5ccccc5OC(F)(F)F)noc3C3CC3)C4)cnc2c1 (centres unmarked) [Example 41]
23,25 to 500,O=C(O)c1cc(F)c2nc(S(=O)(=O)C3C4CCC3CC(OCc3c(-c5ccccc5OC(F)(F)F)noc3C3CC3)C4)sc2c1 (centres unmarked) [Example 45]
24,< 25,FC(F)(F)Oc1ccccc1-c1noc(C2CC2)c1COC1CC2CCC(C1)C2Nc1cnc2c(-c3nnn[nH]3)cccc2n1 (centres unmarked) [Example 46]
25,25 to 500,N#Cc1cccc2ncc(NC3C4CCC3CC(OCc3c(-c5ccccc5OC(F)(F)F)noc3C3CC3)C4)nc12 (centres unmarked) [Example 47]
26,< 25,N#Cc1cccc2nc(NC3C4CCC3CC(OCc3c(-c5ccccc5OC(F)(F)F)noc3C3CC3)C4)cnc12 (centres unmarked) [Example 48]
